The values that follow come from US20090076142A1, “USE OF THE IRRITATING PRINCIPAL OLEOCANTHAL IN OLIVE OIL, AS WELL AS STRUCTURALLY AND FUNCTIONALLY SIMILAR COMPOUNDS” (The Trustees of the University of Pennsylvania, priority 2005, published 2009).

Molecules are shown by their SMILES.

One experiment deals with T1, ovine COX-1 (Ovis aries, UniProt P05979).
T1 construct: purchased Cayman Chemicals
T1 sequence (P05979 25-600): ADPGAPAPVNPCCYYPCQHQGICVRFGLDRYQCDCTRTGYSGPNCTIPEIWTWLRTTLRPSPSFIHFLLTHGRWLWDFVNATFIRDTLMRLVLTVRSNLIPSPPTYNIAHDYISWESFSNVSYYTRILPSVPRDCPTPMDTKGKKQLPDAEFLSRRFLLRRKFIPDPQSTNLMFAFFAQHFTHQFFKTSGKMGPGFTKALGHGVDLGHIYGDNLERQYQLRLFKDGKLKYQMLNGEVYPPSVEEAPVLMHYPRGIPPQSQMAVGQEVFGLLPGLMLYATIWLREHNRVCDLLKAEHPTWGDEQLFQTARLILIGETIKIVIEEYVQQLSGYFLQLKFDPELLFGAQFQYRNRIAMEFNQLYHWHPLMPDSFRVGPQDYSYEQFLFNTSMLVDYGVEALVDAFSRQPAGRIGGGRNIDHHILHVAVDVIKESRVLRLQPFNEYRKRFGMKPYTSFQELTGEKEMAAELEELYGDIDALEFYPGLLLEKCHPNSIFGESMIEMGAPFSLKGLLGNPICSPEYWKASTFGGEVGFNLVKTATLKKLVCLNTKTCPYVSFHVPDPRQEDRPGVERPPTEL
Briefly: Cyclooxygenase COX-1 inhibition assay (Cayman Chemicals kit). The format is biochemical. To be noted: for inhibition at 7 µM / inhibition at 25 µM / inhibition at 100 µM: mean ± SEM, three independent experiments, read-out: Percent inhibition of COX-1; for IC50: least squares regression analysis of inhibition vs. concentration, read-out: calculated IC50 for COX-1.

Another experiment deals with T2, human recombinant COX-2 (Homo sapiens, UniProt P35354).
T2 construct: purchased Cayman Chemicals
T2 sequence (P35354 18-604): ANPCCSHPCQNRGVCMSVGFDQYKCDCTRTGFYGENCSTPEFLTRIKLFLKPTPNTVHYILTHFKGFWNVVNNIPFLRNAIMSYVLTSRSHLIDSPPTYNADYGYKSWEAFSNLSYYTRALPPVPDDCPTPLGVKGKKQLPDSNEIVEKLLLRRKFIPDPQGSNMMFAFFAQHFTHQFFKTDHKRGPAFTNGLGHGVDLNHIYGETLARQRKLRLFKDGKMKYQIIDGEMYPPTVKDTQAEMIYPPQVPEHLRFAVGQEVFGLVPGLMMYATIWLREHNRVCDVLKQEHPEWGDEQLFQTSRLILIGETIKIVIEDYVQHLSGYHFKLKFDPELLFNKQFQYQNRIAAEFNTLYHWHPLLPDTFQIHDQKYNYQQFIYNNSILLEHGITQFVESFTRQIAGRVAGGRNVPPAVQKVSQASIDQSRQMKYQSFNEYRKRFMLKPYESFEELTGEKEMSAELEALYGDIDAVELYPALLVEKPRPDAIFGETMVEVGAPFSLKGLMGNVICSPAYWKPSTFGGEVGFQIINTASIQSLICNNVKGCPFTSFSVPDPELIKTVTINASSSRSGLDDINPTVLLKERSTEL
Put plainly: Cyclooxygenase COX-2 inhibition assay (Cayman Chemicals kit). To be noted: for inhibition at 7 µM / inhibition at 25 µM / inhibition at 100 µM: mean ± SEM, three independent experiments, read-out: Percent inhibition of COX-2; for IC50: least squares regression analysis of inhibition vs. concentration, read-out: calculated IC50 for COX-2. The format is biochemical.

The target in the next experiment is T3, soybean 15-lipoxygenase (Glycine max, UniProt P08170).
T3 construct: purchased Cayman Chemicals
T3 sequence (P08170 1-839): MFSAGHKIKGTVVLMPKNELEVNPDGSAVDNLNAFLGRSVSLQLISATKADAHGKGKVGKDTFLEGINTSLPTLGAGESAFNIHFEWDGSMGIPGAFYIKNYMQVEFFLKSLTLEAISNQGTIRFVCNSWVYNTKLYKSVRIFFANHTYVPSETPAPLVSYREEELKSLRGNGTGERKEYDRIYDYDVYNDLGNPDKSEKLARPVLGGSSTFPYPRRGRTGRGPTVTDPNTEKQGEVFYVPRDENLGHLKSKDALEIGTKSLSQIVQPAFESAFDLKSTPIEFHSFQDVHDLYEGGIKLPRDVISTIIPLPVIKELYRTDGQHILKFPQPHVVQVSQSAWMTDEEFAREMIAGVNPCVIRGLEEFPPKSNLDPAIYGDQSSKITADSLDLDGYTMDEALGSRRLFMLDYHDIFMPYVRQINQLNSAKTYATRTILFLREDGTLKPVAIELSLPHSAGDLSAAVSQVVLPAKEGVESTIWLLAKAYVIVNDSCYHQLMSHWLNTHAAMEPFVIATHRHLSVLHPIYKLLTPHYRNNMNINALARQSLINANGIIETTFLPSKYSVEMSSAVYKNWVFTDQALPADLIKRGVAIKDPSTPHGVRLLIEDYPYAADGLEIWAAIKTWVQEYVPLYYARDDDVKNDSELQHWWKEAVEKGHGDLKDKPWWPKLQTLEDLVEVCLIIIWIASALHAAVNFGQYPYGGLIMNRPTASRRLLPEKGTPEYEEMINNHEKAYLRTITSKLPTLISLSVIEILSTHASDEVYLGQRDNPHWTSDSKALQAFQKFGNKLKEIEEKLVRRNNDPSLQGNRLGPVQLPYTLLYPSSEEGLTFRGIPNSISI
Briefly: 15-lipoxygenase inhibition assay (Cayman Chemicals kit). In kind it is biochemical. To be noted: mean ± SEM, three independent experiments, read-out: Percent inhibition of 15-LO.

The subject of another experiment is throat irritation. Put plainly: Throat irritation sensory test, two-alternative forced-choice, compound in corn oil. The format is in vivo, human. The method, then: Testing was double-blind and each was exposed to three sets of two samples, one of which was added synthesized oleocanthal and the other served as the blank control. The task was to indicated which of the pair was more irritating. […] Importantly, the effect was dose dependent (FIG. 2 open triangles, dashed line). Ten subjects were tested with non-irritating commercial corn oils presented neat and mixed with either synthesized (−)-oleocanthal or the bitter agent sucrose octaacetate (SOA) (Sigma-Aldrich). […] (−)-Oleocanthal was tested at the highest concentration identified in the ten rated oils, 200 μg/ml, and at one half and whole log steps more dilute 63.25 and 20 μg/ml. SOA was added to the corn oil (4×10^−4, 1×10^−4, 5×10^−5 M) to intensity match the irritation of the three levels of (−)-oleocanthal. Subjects participated in two-alternative forced-choice (2AFC) trials (four trials at every concentration for each subject) and in intensity ratings sessions (four ratings per each oil). For the 2AFC trials subjects were presented with two 3.0 ml corn oil samples with matching intensities of SOA and (−)-oleocanthal in ascending order, and were required to sample oils as described above. While blind to stimulus position, subjects were asked two questions on each trial, “Which of the two oils was more irritating in the throat?” and “Which one was more bitter?” At the 20 μg/ml & 5×10^−5 M level most subjects reported on some trials that the same oil was both the more irritating and the more bitter of the two. […] Subjects performed at chance when selecting among two unadulterated corn oils, when the correct choice was randomly assigned prior to testing. […] The other two concentrations were correct 39/40 and 40/40 trials. For the intensity rating trials subjects were presented with all eight oils in ascending order, counterbalanced for stimulus order and asked to rate the throat irritation and bitterness of every oil on a general labeled magnitude scale.

As usually defined, the inhibition is the change of the read-out against control, counted positive when it falls. What is called IC50 is the concentration needed to halve the response being measured. With `CC=C(C=O)C(CC=O)CC(=O)OCCc1ccc(O)cc1` (single isomer, unassigned) [Oleocanthal (+)], at ovine COX-1, the inhibition at 7 µM was determined as 24.6 ± 7.5%, the inhibition at 25 µM was 54.5 ± 4.6%, the inhibition at 100 µM was 68 ± 15.2% and the IC50 was 27.9 µM. Also, at human recombinant COX-2, the inhibition at 7 µM was determined as 6.1 ± 4.2%, the inhibition at 25 µM amounted to 41.3 ± 15.9%, the inhibition at 100 µM came to 69.6 ± 3.9% and the 50% inhibitory concentration (IC50) was 40.5 µM. On soybean 15-lipoxygenase, the inhibition at 7 µM was 0%, the inhibition at 25 µM amounted to 0.7 ± 1% and the inhibition at 100 µM is 3.5 ± 5.5%.

For the compound `O=C(O)/C=C/c1ccc(O)c(O)c1` [Caffeic Acid, caffeic acid, reference compound], at soybean 15-lipoxygenase, the inhibition at 7 µM amounted to 19.8 ± 1.3% and the inhibition at 25 µM is 25.2 ± 2.2%.

With `COc1ccc2c(c1)c(CC(=O)O)c(C)n2C(=O)c1ccc(Cl)cc1` [Indomethacin, reference compound], at soybean 15-lipoxygenase, the inhibition at 7 µM came out at 0.5 ± 0.1% and the inhibition at 25 µM is 0.1 ± 0.9%.

As to `C/C=C(/C=O)[C@@H](CC=O)CC(=O)OCCc1ccc(O)cc1` [Oleocanthal (−), 2-(4-hydroxyphenyl)ethyl, 4-formyl-3-(2-oxoethyl)-4-hexenoic acid ester], at ovine COX-1, the inhibition at 7 µM turned out to be 24.6 ± 7.3%, the inhibition at 25 µM is 56.1 ± 3.2%, the inhibition at 100 µM was 83.5 ± 3.5% and the IC50 is 21.4 µM. For the same compound, at human recombinant COX-2, the inhibition at 7 µM stood at 14.5 ± 2.3%, the inhibition at 25 µM worked out at 56.6 ± 9.5%, the inhibition at 100 µM turned out to be 70.9 ± 8.6% and the IC50 was 29.4 µM. Moreover, on soybean 15-lipoxygenase, the inhibition at 7 µM stood at 0%, the inhibition at 25 µM came to 0% and the inhibition at 100 µM was determined as 0.4 ± 0.8%. For the same compound, the “correct 2AFC trials (more irritating in the throat)” value in the experiment on throat irritation (20 μg/ml in corn oil vs SOA, ten subjects) is 24 out of 40. In the experiment with throat irritation (corn oil, ten subjects), the “detection threshold level of throat irritation in corn oil” value is ~20 µg/mL. In addition, the “throat irritation compared with oleocanthal isolated from premium olive oil” value with throat irritation (synthetic compound in corn oil) is “identical to oleocanthal isolated from premium olive oil”. For the same compound, the “correct identification of the more irritating sample (2AFC)” value with throat irritation (three evaluators, three presentations, corn oil, approximately twice the concentration found in Falconaro olive oil, p<0.01) is 9 of 9.
